Source: patent publication US11491173B2, “Pharmaceutical composition and application thereof” (priority 2018, dated 2022)
Values joined by “and” are separate entries in the source; they are usually repeats but may differ in a detail not shown here. Equal values may be shown once.

How the values were obtained:
[1] = test system: H9c2 cardiomyocyte damage induced by hypoxia; test: Hypoxia-induced H9c2 cardiomyocyte damage, mitochondrial function (MitoTracker Deep Red FM, high-content imaging); assay type: cell-based; conditions: for mitochondrial function (Table 9): individual replicates N1-N3
Procedure: (§1) 2. Experimental methods: QSYQ-1 and QSYQ-2, and each active ingredient group were ultrasonically dissolved and prepared into a 0.4 mg/mL of stock solution with DMSO. When in vitro activity evaluation was performed, the above groups were diluted with the same amount of experimental medium respectively.
(§2) The cells were collected at the logarithmic growth phase and added to a 96-well culture plate with a black transparent bottom at a concentration of 5000 cells per well and a volume of 100 μL per well. The cells were incubated in an incubator with 5% CO2 at 37° C. for 24 hours. Subsequently, the tested groups were added to the experimental groups respectively, incubated for 24 hours, and then placed in a hypoxic chamber passing a mixed gas composed of 95% nitrogen and 5% CO2 at a flow rate of 15 L/min for 10 mins, and incubated for another 8 hours after inducing hypoxia damage at 37° C. The model group was only incubated for 8 hours under hypoxia, and the blank control group was incubated normally.
(§3) The labeling operation of cell fluorescent probe was as follows: the mother liquor of fluorescent probe Hoechst 33342 was diluted 1000-fold into a DMEM basic medium; then the mother liquor of MitoTracker Deep Red FM was diluted 10000-fold into a culture medium containing Hoechst 33342 to serve as a “cocktail” stain. The medium in the culture plate was discarded and replaced with the “cocktail” stain, 50 μL per well, and incubated in an incubator away from light for 30 mins. The plate was taken out away from light, and washed with DMEM (high glucose) for 3 times and 5 minutes each time. Live cell imaging was performed subsequently.
(§4) The operation of live cell imaging with HCS was as follows: an excitation light of 360-400 and an emission light of 410-480 were selected for the imaging of Hoechst 33342-labeled nuclei; an excitation light of 620-640 and an emission light of 650-760 were selected for the imaging of MitoTracker Deep Red FM-labeled mitochondria. Harmony 3.0 software was applied to analyze the HCS imaging and read the fluorescence intensities of the nucleus/cytoplasm. The HCS screening system combined the automatic fluorescence microscopy imaging functions, and can perform a high-throughput multi-index analysis. Columbus high-efficiency image and data management and analysis system were applied to perform a secondary analysis and management of the image and data, and draw the dosage-dependent curve relationship.

[2] = test system: H9c2 cardiomyocyte damage induced by hypoxia; test: Hypoxia-induced H9c2 cardiomyocyte damage, nucleus number (Hoechst 33342, high-content imaging); assay type: cell-based; conditions: for nucleus number (Table 7): individual replicates N1-N3, 0.4 mg/mL DMSO stock diluted with medium
Procedure: as §1, §2, §3, §4

[3] = mean of N1-N3, 24 h pre-incubation, then hypoxia 8 h
[4] = 24 h pre-incubation, then hypoxia 8 h

Compound	mitochondrial function, Mean (Table 9) [1, 3]	nucleus number (Table 7) [2, 4]	nucleus number, Mean (Table 7) [2, 3]	mitochondrial function (Table 9) [1, 4]	further results
astragaloside [Astragaioside]	817.5	374 and 365 and 435	391.3		mitochondrial function (Table 9) ([1]; 24 h pre-incubation, then hypoxia 8 h, listed as Astradaloside): 812.45 and 768.63 and 871.37
CC(C)=CCC[C@](C)(O[C@@H]1O[C@H](CO)[C@@H](O)[C@H](O)[C@H]1O)[C@H]1CC[C@]2(C)[C@@H]1[C@H](O)C[C@@H]1[C@@]3(C)CC[C@H](O)C(C)(C)[C@@H]3[C@@H](O[C@@H]3O[C@H](CO)[C@@H](O)[C@H](O)[C@H]3O)C[C@]12C [Ginsenoside Rg1, ginsenoside Rg1]	905.5	264 and 310 and 350	308.0	843.46 and 918.73 and 954.27	
O=C(/C=C/c1ccc(O)c(O)c1/C(=C\c1ccc(O)c(O)c1)C(=O)O)O[C@H](Cc1ccc(O)c(O)c1)C(=O)O [Salvianolic acid U, salvianolic acid U]	909.3	349 and 315 and 252	305.3	992.37 and 840.14 and 895.53	
O=C(/C=C/c1ccc(O)c(O)c1/C=C/c1ccc(O)c(O)c1)O[C@H](Cc1ccc(O)c(O)c1)C(=O)O [Salvianolic acid A, salvianolic acid A]	905.1	264 and 287 and 254	268.3		mitochondrial function (Table 9) ([1]; 24 h pre-incubation, then hypoxia 8 h, listed as Saivianolic acid A): 914.19 and 859.26 and 941.93
O=Cc1ccc(O)c(O)c1 [Protocatechuic aldehyde, protocatechuic aldehyde]	909.7	361 and 345 and 303	336.3	946.04 and 881.05 and 901.89	
COc1ccc(-c2coc3cc(O[C@@H]4O[C@H](CO)[C@@H](O)[C@H](O)[C@H]4O)ccc3c2=O)cc1O [Calycosin-7-glucoside, calycosin-7-glucoside]	902.3	312 and 366 and 323	333.7	967.77 and 861.05 and 877.99	
O=C(O)C1Cc2ccc(O)c3c2C(=Cc2ccc(O)c(O)c2O3)C1=O (centres unmarked) [Salvianolic acid G, salvianolic acid G]	867.7	380 and 328 and 391	366.3		mitochondrial function (Table 9) ([1]; 24 h pre-incubation, then hypoxia 8 h, listed as Saivianolic acid G): 870.9 and 831.06 and 901.01
CC(C)=CCC[C@](C)(O[C@@H]1O[C@H](CO[C@@H]2O[C@H](CO)[C@@H](O)[C@H](O)[C@H]2O)[C@@H](O)[C@H](O)[C@H]1O)[C@H]1CC[C@]2(C)[C@@H]1[C@H](O)C[C@@H]1[C@@]3(C)CC[C@H](O[C@@H]4O[C@H](CO)[C@@H](O)[C@H](O)[C@H]4O[C@@H]4O[C@H](CO)[C@@H](O)[C@H](O)[C@H]4O)C(C)(C)[C@@H]3CC[C@]12C [Ginsenoside Rb1, ginsenoside Rb1]	814.6	406 and 420 and 386	404.0	778.78 and 843.1 and 822.04	
COc1ccc(-c2coc3cc(O)ccc3c2=O)cc1O [Calycosin, calycosin]	905.6		386.0		
O=C(O)Cc1c(/C=C/C(=O)O[C@H](Cc2ccc(O)c(O)c2)C(=O)O)ccc(O)c1O [Salvianolic acid D, salvianolic acid D]	922.3	306 and 236 and 273	271.7	946.71 and 900.04 and 920.17	
Cc1coc2c1C(=O)C(=O)c1c-2ccc2c(C)cccc12 [Tanshinone I, tanshinone I]	869.8	379 and 315 and 300	331.3	876.03 and 904.55 and 828.87	
CC(C)=CCC[C@](C)(O[C@@H]1O[C@H](CO)[C@@H](O)[C@H](O)[C@H]1O)[C@H]1CC[C@]2(C)[C@@H]1[C@H](O)C[C@@H]1[C@@]3(C)CC[C@H](O)C(C)(C)[C@@H]3[C@@H](O[C@@H]3O[C@H](CO)[C@@H](O)[C@H](O)[C@H]3O[C@@H]3OC[C@@H](O)[C@H](O)[C@H]3O)C[C@]12C [Notoginsenoside R1, notoginsenoside R1]	925.9	360 and 383 and 355	366.0		mitochondrial function (Table 9) ([1]; 24 h pre-incubation, then hypoxia 8 h, listed as Notoainsenoside R1): 841.9 and 950.39 and 985.33
Cc1coc2c1C(=O)C(=O)c1c-2ccc2c1CCCC2(C)C [Tanshinone IIA, tanshinone IIA]	695.2		393.3		
O=C(/C=C/c1ccc(O)c2c1[C@H](C(=O)O)[C@@H](c1ccc(O)c(O)c1)O2)O[C@H](Cc1ccc(O)c(O)c1)C(=O)O [Lithospermic acid, lithospermic acid]	811.6		356.0		
O=C(/C=C/c1ccc(O)c(O)c1)O[C@H](Cc1ccc(O)c(O)c1)C(=O)O [Rosmarinic acid, rosmarinic acid]	790.6		345.3		
COc1ccc(-c2coc3cc(O[C@@H]4O[C@H](CO)[C@@H](O)[C@H](O)[C@H]4O)ccc3c2=O)cc1 [Ononin, ononin]	695.0		366.0		
O=C(/C=C/c1ccc(O)c2c1[C@H](C(=O)O[C@H](Cc1ccc(O)c(O)c1)C(=O)O)[C@@H](c1ccc(O)c(O)c1)O2)O[C@H](Cc1ccc(O)c(O)c1)C(=O)O [Salvianolic acid B, salvianolic acid B]	855.2	385 and 364 and 435	394.7	801.62 and 853.39 and 910.53	
C[C@H]1COC2=C1C(=O)C(=O)c1c2ccc2c1CCCC2(C)C [Cryptotanshinone, cryptotanshinone]	853.8		349.0		
CC(C)=CCC[C@](C)(O[C@@H]1O[C@H](CO)[C@@H](O)[C@H](O)[C@H]1O)[C@H]1CC[C@]2(C)[C@@H]1[C@H](O)C[C@@H]1[C@@]3(C)CC[C@H](O[C@@H]4O[C@H](CO)[C@@H](O)[C@H](O)[C@H]4O[C@@H]4O[C@H](CO)[C@@H](O)[C@H](O)[C@H]4O)C(C)(C)[C@@H]3CC[C@]12C [Ginsenoside Rd, ginsenoside Rd]					mitochondrial function, Mean (Table 9) ([1]; 8 h): 820.9; nucleus number, Mean (Table 7) ([2]; 8 h): 408.0
O=C(/C=C/c1ccc(O)c2c1C=Cc1cc(O)c(O)cc1O2)O[C@H](Cc1ccc(O)c(O)c1)C(=O)O [Isosalvianolic acid C, isosalvianolic acid C]	772.6	293 (2×) and 326	304.0	766.96 and 812.08 and 738.89	
O=C(O)[C@H](O)Cc1ccc(O)c(O)c1 [Danshensu]	879.0	326 and 371 and 342	346.3	909.24 and 845.81 and 882.04	
Cc1cccc2c3c(ccc12)C1=C(C(=O)C3=O)[C@@H](C)CO1 [Dihydrotanshinone I, dihydrotanshinone I]	887.3	303 and 373 and 313	339.7	930.1 and 918.77 and 813.04	
COc1ccc(-c2coc3cc(O)ccc3c2=O)cc1 [Formononetin, formononetin]	863.7		376.3		
O=C(/C=C/c1ccc(O)c(O)c1/C(=C\c1ccc(O)c(O)c1)C(=O)O)O[C@H](Cc1ccc(O)c(O)c1)C(=O)O [Salvianolic acid T, salvianolic acid T]	842.6	325 and 279 and 284	296.0	815.14 and 888.53 and 824.27	
